Series [1] is described as follows: Dissolution test under sink condition. It is filed as physicochemical. The following applies: deionized water with 0.3% (w/v) SDS, 900 mL, 37 °C, 100 rpm, 20 mg FNB. The method, then:
The dissolution test under sink condition was conducted utilizing a ZRS-8G dissolution tester equipped with USP paddle apparatus (TDTF, Tianjin, China) at 37 °C and 100 rpm. […] Aliquot release medium (5 mL) was withdrawn at predetermined time intervals and an equal volume of fresh medium was added to compensate the sampling loss. The obtained samples were filtered through a 0.22 μm microporous membrane, and determined at 288 nm by UV spectrophotometry (TU-1901, Beijing, China).

The nature of series [2]: Water contact angle of compressed powder (wettability). It is filed as physicochemical. The following applies: pure water drop on compressed slice, Mean ± S.D., n = 3. The protocol:
Powdered materials of different formulations were measured for angle of repose applying a BT 1000 powder analyzer (DanDong Better size Instruments, China). The wettability of the powders was evaluated using a contact angle analyzer (Dataphysics OCA-35, Filderstadt, Germany). Prior to measurement, 300 mg of powder was dried and then compressed into a slice with a diameter size of approximately 12 mm under a pressure of 10 MPa for one minute. […] The dynamic wetting angle was recorded using a video system at the speed of 6 frames/min.

Molecules are shown by their SMILES.

For `CC(C)OC(=O)C(C)(C)Oc1ccc(C(=O)c2ccc(Cl)cc2)cc1` [FNB, Fenofibrate], the “drug release after 5 min” value in series [1] worked out at 5.42%. Further, the Contact angle in series [2] is listed as 87.2 ± 0.4 °.
